{
  "source": "patent US20240329033A1",
  "about": "“MonoMac-1 Cells Expressing CD16 and CD163” (Temple University-Of The Commonwealth System of Higher …, priority 2016, published 2024)",
  "format_in_all_cases": "cell-based, human",
  "key": {"[1]": {"system": "MONO-MAC-1 cells", "assay": "Flow cytometry of CD163, CD16 and CD4 expression in differentiated MONO-MAC-1 cells", "conditions": "for expression of CD163+ / expression of CD16+: added for 24 hours to MonoMac-1 treated with PMA+DEX+MCSF+LPS; for expression of CD163+: FIG. 6A; for expression of CD16+: FIG. 6B", "description": "MONO-MAC-1 cells were cultured at 37° C. in a humidified atmosphere containing 5% CO2 using RPM1 1640 medium supplemented with 10% heat-inactivated fetal bovine serum (FBS, Sigma) and 1% of stable glutamine, 1 mM sodium pyruvic acid and 1×MEM non-essential amino acids were added. Cells were seeded at a density of 0.5×10^6 cells/ml and were sub cultured upon reaching 1× 10^6 cells/ml. Medium was changed every 2 to 3 days. […] Data were analyzed with GraphPad Prism (version 6) soft-ware. Flow cytometric measurements were performed using four colors FACSCalibur (Becton Dickinson)."}, "[2]": {"system": "MCP-1", "assay": "MCP-1 concentration in MonoMac-1 culture", "conditions": "FIG. 8"}, "[3]": {"system": "tryptophan catabolism/IDO activity in MonoMac-1", "assay": "Tryptophan catabolism/IDO activity (kynurenine/tryptophan in cell culture supernatant) in MonoMac-1", "conditions": "for kynurenine/tryptophan ratio: cell culture supernatant, FIG. 7C", "description": "A major mechanism for inflammation and disease pathogenesis involves tryptophan catabolism via the kynurenine pathway. As such we evaluated cytokine inducers of IDO enzyme induction, a limiting step in the kynurenine pathway.\nTNF α and IFN γ induce tryptophan catabolism/IDO activity as determined by increase in the kynurenine/tryptophan ratio in cell culture supernatant, in response to TNF alpha and IFN gamma treatment (FIG. 7)."}, "[4]": {"conditions": "induction: PMA 20 ng/ml ± LPS 10 ng/ml 3 days, then MCSF 5 ng/ml + DEX 200 ng/ml 4 days, FIG. 1A"}},
  "data": [
    {"molecule": "lipopolysaccharide [LPS, reference compound]", "values": [
      {"measurement": "expression of CD163+ monocytes", "setting": "[1]; [4]", "value": "has the most effect"},
      {"measurement": "percentage of CD16+CD163+ monocytes", "setting": "[1]; induction: PMA ± LPS 3 days, then DEX+MCSF 4 days, FIG. 2, FIG. 3", "value": "required to have maximum effect"}
    ]},
    {"molecule": "FC(F)(F)c1ccc(CNc2ccc(Cc3c[nH]c4ncc(Cl)cc34)cn2)cn1", "note": "[PLX3397, reference compound]", "values": [
      {"measurement": "expression of CD16+ monocytes", "setting": "[1]; antagonist 500 nM added after PMA/LPS 72 h and 4 days MCSF+DEX, FIG. 4A", "value": "reduction in expression"},
      {"measurement": "expression of CD4+ monocytes", "setting": "[1]; antagonist 500 nM added after PMA/LPS 72 h and 4 days MCSF+DEX, FIG. 4B", "value": "reduction in expression"},
      {"measurement": "expression of CD163+ monocytes", "setting": "[1]; antagonist 500 nM added after PMA/LPS 72 h and 4 days MCSF+DEX, FIG. 4C", "value": "significantly decreases expression"}
    ]},
    {"molecule": "TNF α", "values": [
      {"measurement": "MCP-1 concentration", "setting": "[2]", "value": "increase MCP-1"},
      {"measurement": "expression of CD163+", "setting": "[1]", "value": "further increase the expression"},
      {"measurement": "expression of CD16+", "setting": "[1]", "value": "further increase the expression"},
      {"measurement": "kynurenine/tryptophan ratio", "setting": "[3]", "value": "increase"}
    ]},
    {"molecule": "IFN γ: cytokine inducer of IDO enzyme induction (protein, UniProt P01579 24-161, looked up) Interferon gamma: QDPYVKEAENLKKYFNAGHSDVADNGTLFLGILKNWKEESDRKIMQSQIVSFYFKLFKNFKDDQSIQKSVETIKEDMNVKFFNSNKKKRDDFEKLTNYSVTDLNVQRKAIHELIQVMAELSPAAKTGKRKRSQMLFRG", "values": [
      {"measurement": "MCP-1 concentration", "setting": "[2]", "value": "increase MCP-1"},
      {"measurement": "expression of CD163+", "setting": "[1]", "value": "further increase the expression"},
      {"measurement": "expression of CD16+", "setting": "[1]", "value": "further increase the expression"},
      {"measurement": "tryptophan concentration", "setting": "[3]; added to the combination of PMA, LPS, MCSF and DEX, FIG. 7A", "value": "decreased"},
      {"measurement": "kynurenine concentration", "setting": "[3]; added to the combination of PMA, LPS, MCSF and DEX, FIG. 7B", "value": "increased"},
      {"measurement": "kynurenine/tryptophan ratio", "setting": "[3]", "value": "increase"}
    ]},
    {"molecule": "macrophage colony-stimulating factor (protein, UniProt P09603 33-554, looked up) Macrophage colony-stimulating …: EEVSEYCSHMIGSGHLQSLQRLIDSQMETSCQITFEFVDQEQLKDPVCYLKKAFLLVQDIMEDTMRFRDNTPNAIAIVQLQELSLRLKSCFTKDYEEHDKACVRTFYETPLQLLEKVKNVFNETKNLLDKDWNIFSKNCNNSFAECSSQDVVTKPDCNCLYPKAIPSSDPASVSPHQPLAPSMAPVAGLTWEDSEGTEGSSLLPGEQPLHTVDPGSAKQRPPRSTCQSFEPPETPVVKDSTIGGSPQPRPSVGAFNPGMEDILDSAMGTNWVPEEASGEASEIPVPQGTELSPSRPGGGSMQTEPARPSNFLSASSPLPASAKGQQPADVTGTALPRVGPVRPTGQDWNHTPQKTDHPSALLRDPPEPGSPRISSLRPQGLSNPSTLSAQPQLSRSHSSGSVLPLGELEGRRSTRDRRSPAEPEGGPASEGAARPLPRFNSVPLTDTGHERQSEGSFSPQLQESVFHLLVPSVILVLLAVGGLLFYRWRRRSHQEPQRADSPLEQPEGSPLTQDDRQVELPV", "values": [
      {"measurement": "expression of CD163+ monocytes", "setting": "[1]; [4]", "value": "promotes expression"}
    ]}
  ]
}
